Test results: publication PMC6399351, “Cationic Intrinsically Disordered Antimicrobial Peptides (CIDAMPs) Represent a New Paradigm of Innate Defense with a Potential for Novel Anti-Infectives” (Scientific Reports, 2019)
Converted amounts (≈) assume the structure as drawn. “And” between values parts separate entries of the source, which are not always exact repeats. Equal entries are not always repeated. Where two headings read alike, the source gives them in different places. Peptide text beside a SMILES is read from it. * marks the point of attachment. Palmitoyl = CCCCCCCCCCCCCCCC(=O)*

Assays:
E. coli ATCC 11775 = test: CFU assay of antimicrobial activity; format: cell-based, Escherichia coli; conditions: 10 mM NaP
Procedure, shortened: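 Early log-phase bacteria grown in BHI were exposed at 10^4–10^5 CFU/ml for 2 h at ambient temperature. Two-fold serial dilutions spanned 300 or 150 µg/mL–19 ng/mL (synthetic peptides) or 100 µg/mL–25 ng/mL (recombinant HRNR fragments), and colonies were counted after 16 h at 37 °C.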

[1] = test system: Prevotella oralis ATCC 33321; test: CFU assay of antimicrobial activity; format: cell-based; conditions: 10 mM NaP, pH 7.3, 1% TSB
Description: All purified peptides and recombinant proteins were applied using a colony forming unit (CFU) assay in different media. Bacteria were grown to early log-phase in BHI, washed either with 10 mM Na-P, pH 7.4/1% TSB or pH 5.5/1% TSB, or pH 5.5 without TSB or BHI, and adjusted to a concentration of 10^4–10^5 colony forming units (CFU)/ml. For cell number control, 100 µl aliquots were diluted 1:10, 1:100 and 1:1000 and plated in duplicates on BHI agar plates. To 100 µl aliquots of the bacteria, suspended in the respective medium (10 mM Na-P buffer pH 7,0–7,4/ 1% (w/v) TSB; 10 mM Na-P buffer pH 5,5/ 1% (w/v) TSB; 10 mM Na-P buffer pH 7,0–7,4/ 1% (w/v) TSB pH 7,0–7,4/ 0,25% (w/v) glucose; […], respectively), 10 µl of a solution of the peptide or protein (two-fold dilutions, from 300 µg/ml or 150 µg/ml down to 19 ng/ml), dissolved in 0.01% (v/v) acetic acid, were added.
(§1) Then bacteria were incubated for 2 h at ambient temperature, if not otherwise stated. 10 µl of 0.01% (v/v) acetic acid, added to 100 µl aliquots of the bacteria in the respective medium, served as negative control. From each test, 1:10 and 1:100 dilutions were generated and plated as duplicates of 100 µl aliquots on BHI agar plates. After 16 h incubation at 37 °C, CFU were counted using a colony counter (Bio Kobe, Japan) and expressed as mean of the duplicate estimation to achieve a complete dose-response curve. All experiments were performed at serial dilutions in a concentration range of 100 µg/mL −25 ng/mL for recombinant HRNR fragments and 300 or 150 µg/mL–19 ng/mL for synthetic peptides.

[2] = test system: Corynebacterium simulans DSM 44415; test: CFU assay of antimicrobial activity; format: cell-based; conditions: 10 mM NaP, pH 7.3, 1% TSB
Description: All purified peptides and recombinant proteins were applied using a colony forming unit (CFU) assay in different media. Bacteria were grown to early log-phase in BHI, washed either with 10 mM Na-P, pH 7.4/1% TSB or pH 5.5/1% TSB, or pH 5.5 without TSB or BHI, and adjusted to a concentration of 10^4–10^5 colony forming units (CFU)/ml. For cell number control, 100 µl aliquots were diluted 1:10, 1:100 and 1:1000 and plated in duplicates on BHI agar plates. […]
as §1

[3] = test system: Lactobacillus crispatus DSM 20584; test: CFU assay of antimicrobial activity; format: cell-based; conditions: 10 mM NaP, pH 7.3, 1% TSB
Description: (§2) All purified peptides and recombinant proteins were applied using a colony forming unit (CFU) assay in different media. Bacteria were grown to early log-phase in BHI, washed either with 10 mM Na-P, pH 7.4/1% TSB or pH 5.5/1% TSB, or pH 5.5 without TSB or BHI, and adjusted to a concentration of 10^4–10^5 colony forming units (CFU)/ml. For cell number control, 100 µl aliquots were diluted 1:10, 1:100 and 1:1000 and plated in duplicates on BHI agar plates. To 100 µl aliquots of the bacteria, suspended in the respective medium (10 mM Na-P buffer pH 7,0–7,4/ 1% (w/v) TSB; 10 mM Na-P buffer pH 5,5/ 1% (w/v) TSB; 10 mM Na-P buffer pH 7,0–7,4/ 1% (w/v) TSB pH 7,0–7,4/ 0,25% (w/v) glucose; 10 mM Na-P buffer pH 5,5/ 0,25% (w/v) glucose, respectively), 10 µl of a solution of the peptide or protein (two-fold dilutions, from 300 µg/ml or 150 µg/ml down to 19 ng/ml), dissolved in 0.01% (v/v) acetic acid, were added.
as §1

[4] = test system: Propionibacterium acnes ATCC 6919; test: CFU assay of antimicrobial activity; format: cell-based; conditions: 10 mM NaP
Description: as §2, §1

[5] = test system: Salmonella typhimurium ATCC 13311; test: CFU assay of antimicrobial activity; format: cell-based; conditions: 10 mM NaP, pH 7.3, 1% TSB
Description: as §2, §1

[6] = test system: Staphylococcus epidermidis ATCC 14990; test: CFU assay of antimicrobial activity; format: cell-based; conditions: 10 mM NaP
Description: as §2, §1

[7] = test system: Acinetobacter baumannii ATCC 19606; test: CO-ADD MIC, broth microdilution (CLSI); format: cell-based; conditions: Mueller–Hinton broth, 5 × 10^5 CFU/mL, 18 h 37 °C, by CO-ADD
Excerpt: (§3) They were defined as the lowest peptide
(§4) Further details of the screening

[8] = test system: Pseudomonas aeruginosa ATCC 27853; test: CO-ADD MIC, broth microdilution (CLSI); format: cell-based; conditions: Mueller–Hinton broth, 5 × 10^5 CFU/mL, 18 h 37 °C, by CO-ADD
Excerpt: as §3, §4

P. aeruginosa ATCC 10145 = conditions: CFU assay, 10 mM NaP
S. aureus ATCC 6538 = conditions: CFU assay
[9] = test system: Burkholderia cepacia ATCC 25416; conditions: CFU assay, 10 mM NaP
[10] = test system: Klebsiella pneumoniae ATCC 13883; conditions: CFU assay, 10 mM NaP
[11] = test system: Moraxella osloensis RV A2/2001; conditions: CFU assay, 10 mM NaP, pH 7.3, 1% TSB
[12] = test system: Clostridium perfringens ATCC 13124; conditions: CFU assay, 10 mM NaP
[13] = test system: Klebsiella pneumonia ATCC 700603; conditions: MDR strain; CLSI, Mueller–Hinton broth, 5 × 10^5 CFU/mL, 18 h 37 °C, by CO-ADD
[14] = test system: Staphylococcus aureus ATCC 43300; conditions: MRSA; CLSI, Mueller–Hinton broth, 5 × 10^5 CFU/mL, 18 h 37 °C, by CO-ADD

CCCCCCCCCCCCCCCC(=O)NCC(=O)N[C@@H](CCCNC(=N)N)C(=O)N[C@@H](CCCNC(=N)N)C(=O)NCC(=O)NCC(=O)N[C@@H](CCCNC(=N)N)C(=O)NCC(=O)NCC(=O)N[C@@H](CCCNC(=N)N)C(=O)NCC(=O)N[C@@H](CCCNC(=N)N)C(=O)NCC(=O)N[C@@H](CCCNC(=N)N)C(=O)O [Pal-GR13] (Palmitoyl-GRRGGRGGRGRGR-OH)
LD90 (E. coli ATCC 11775; pH 5.5, 0.25% glucose): 0.15 µg/mL
LD90 (E. coli ATCC 11775; pH 7.3, 1% TSB): 1.18 µg/mL
LD90 [1]: 9.38 µg/mL
LD90 [2]: 0.59 µg/mL
LD90 [3]: 9.38 µg/mL
LD90 ([4]; pH 5.5, 0.25% glucose): 0.3 µg/mL
LD90 ([4]; pH 7.3, 0.25% glucose): 0.59 µg/mL
LD90 ([4]; pH 7.3, 1% TSB): 1.18 µg/mL
LD90 [5]: 2.35 µg/mL
LD90 ([6]; pH 5.5, 0.25% glucose): 9.38 µg/mL
LD90 ([6]; pH 7.3, 1% TSB): 0.59 µg/mL
Minimal inhibitory concentration (MIC) [7]: 2 µg/mL (≈ 1.26 µM)
Minimal inhibitory concentration (MIC) [8]: 8 µg/mL (≈ 5.02 µM)
LD90 (P. aeruginosa ATCC 10145; pH 5.5, 0.25% glucose): 0.075 µg/mL
LD90 (P. aeruginosa ATCC 10145; pH 7.3, 1% TSB): 0.3 µg/mL
LD90 (S. aureus ATCC 6538; 10 mM NaP, pH 5.5, 0.25% glucose): 0.075 µg/mL and 0.15 µg/mL
LD90 (S. aureus ATCC 6538; 10 mM NaP, pH 5.5, 1% TSB): 0.3 µg/mL
LD90 (S. aureus ATCC 6538; 10 mM NaP, pH 7.3, 1% TSB): 0.3 µg/mL
LD90 (S. aureus ATCC 6538; value in molar units): 47 nM
LD90 ([9]; pH 5.5, 0.25% glucose): >300 µg/mL
LD90 ([9]; pH 7.3, 0.25% glucose): 4.7 µg/mL
LD90 ([9]; pH 7.3, 1% TSB): 18.75 µg/mL
LD90 ([10]; pH 5.5, 0.25% glucose): 0.15 µg/mL
LD90 ([10]; pH 7.3, 1% TSB): 1.18 µg/mL
LD90 [11]: 0.59 µg/mL
LD90 ([12]; pH 5.5, 0.25% glucose): 37.5 µg/mL
LD90 ([12]; pH 7.3, 0.25% glucose): 4.7 µg/mL
LD90 ([12]; pH 7.3, 1% TSB): 18.75 µg/mL
Minimal inhibitory concentration (MIC) [13]: ≥16 µg/mL
Minimal inhibitory concentration (MIC) [14]: 0.25 µg/mL (≈ 0.157 µM)
